Key:
[1] = target: T1, Rat NHE-3 (Rattus norvegicus, UniProt P26433); experiment: Cell-based assay of NHE-3 activity (rat NHE-3 prompt inhibition); conditions: OK cells with rat NHE-3 gene, compound present during pH recovery; read-out: Rat NHE3 pIC50 (prompt) (converted)
T1 construct: expressed in transfected cells; host or cells: Opossum kidney (OK) cells (ATCC), transfected by electroporation
Summary of the method: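 Opossum kidney cells electroporated with rat or human NHE-3, loaded with 5 μM BCECF-AM in NH4Cl-HEPES pH 7.4 for 30 min at RT, then acidified 10 min in Na+-free choline HEPES. Na+-dependent pH recovery rates from BCECF fluorescence, averaged over ≥2 replicates, gave pIC50.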

[2] = test system: absorption of sodium from the intestinal lumen; experiment: Inhibition of intestinal sodium absorption (urinary sodium and fecal form); format: in vivo, Sprague-Dawley rats; conditions: rat; for response vs control in vivo at 3 mg/kg: 3 mg/kg oral gavage, urine 16 h post-dose, asterisks = significance vs vehicle (*P<0.05, **P<0.01, ***P<0.001), read-out: uNa (% of vehicle)
Summary of the method: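 Sprague-Dawley rats (8 weeks, n=6) dosed by oral gavage with compound or water vehicle (10 mL/kg) in late afternoon, then housed in metabolic cages. Over 16 h, urinary sodium measured by ion chromatography and expressed as % of vehicle mean; fecal form scored 1–5, averaged from two observations.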

[3] = Plasma PK; format: in vivo, Sprague-Dawley rats; conditions: Sprague-Dawley; rat plasma, oral gavage, nominal dose 30 mg/kg, mean of n=3, sampling 0.5-4 h
Experimental: Sprague-Dawley rats (n=3) were dosed with test compounds by oral gavage. Blood was collected at 0.5, 1, 2 and 4 h via retro-orbital bleeds and processed to plasma using K2EDTA as an anticoagulant. Plasma samples were treated with acetonitrile containing an internal standard and precipitated proteins were removed by centrifugation. Supernatants were analyzed by LC-MS/MS and compound concentrations were determined by interpolation from a calibration curve prepared in plasma. Accurate recovery of quality control samples were confirmed to accept each analytical run.

[4] = Pharmacokinetic evaluation in bile; format: in vivo, Sprague-Dawley rats; conditions: bile duct cannulated rats, oral gavage, nominal dose 30 mg/kg, bile collected over 24 h, mean of n=3
Experimental: Bile duct cannulated (BDC) Sprague-Dawley rats were dosed with test compounds by oral gavage and a single aliquot of bile was collected via cannula over the 24 h following dosing. Bile samples were treated with acetonitrile and precipitated proteins were removed by centrifugation. Some compounds required liquid-liquid extraction using MTBE. After centrifugation, samples were diluted as appropriate in mobile phase and analyzed by LC-MS/MS. The concentrations of compounds in bile were determined by interpolation from a standard calibration curve prepared in rat bile from untreated BDC rats. Accurate recovery of quality control samples was confirmed to accept each analytical run. Concentration in bile is reported in nM and represents the mean result from n=3 rats.

T1 sequence (P26433 29-831): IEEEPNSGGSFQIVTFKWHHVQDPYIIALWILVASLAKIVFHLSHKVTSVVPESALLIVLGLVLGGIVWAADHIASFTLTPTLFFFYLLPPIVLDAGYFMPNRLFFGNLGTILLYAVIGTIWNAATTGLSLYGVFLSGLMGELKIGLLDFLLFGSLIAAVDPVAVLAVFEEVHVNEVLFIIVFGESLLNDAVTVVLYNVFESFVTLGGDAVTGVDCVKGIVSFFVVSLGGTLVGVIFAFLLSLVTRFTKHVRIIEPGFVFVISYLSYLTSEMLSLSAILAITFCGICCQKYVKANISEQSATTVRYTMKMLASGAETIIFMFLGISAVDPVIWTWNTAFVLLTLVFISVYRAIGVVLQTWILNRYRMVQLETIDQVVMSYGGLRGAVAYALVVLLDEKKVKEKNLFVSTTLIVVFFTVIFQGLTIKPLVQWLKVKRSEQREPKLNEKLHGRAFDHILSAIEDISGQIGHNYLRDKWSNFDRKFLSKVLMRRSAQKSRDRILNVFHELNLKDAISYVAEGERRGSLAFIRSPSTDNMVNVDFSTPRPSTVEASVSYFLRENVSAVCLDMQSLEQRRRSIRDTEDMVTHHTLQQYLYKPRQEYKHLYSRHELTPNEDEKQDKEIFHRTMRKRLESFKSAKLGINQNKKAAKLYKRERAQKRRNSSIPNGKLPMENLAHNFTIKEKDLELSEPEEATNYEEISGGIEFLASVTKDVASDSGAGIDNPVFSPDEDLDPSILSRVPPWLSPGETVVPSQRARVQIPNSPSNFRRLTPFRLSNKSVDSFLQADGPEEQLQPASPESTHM

SMILES | IC50 [1] [nM] | response vs control in vivo at 3 mg/kg [2] [%] | AUC [3] [ng·h/mL] | Cmax [3] [ng/mL] | Concentration in Bile [4] [nM] | FFS ([2]; fecal form score, scale 1 (normal pellet) to 5 (liquid fecal streams), group average, 3 mg/kg oral, 16 h post-dose, vehicle = 1)
CN1Cc2c(Cl)cc(Cl)cc2[C@H](c2cccc(S(=O)(=O)NCCOCCOCCNC(=O)CCC(N)(CCC(=O)NCCOCCOCCNS(=O)(=O)c3cccc([C@@H]4CN(C)Cc5c(Cl)cc(Cl)cc54)c3)CCC(=O)NCCOCCOCCNS(=O)(=O)c3cccc([C@@H]4CN(C)Cc5c(Cl)cc(Cl)cc54)c3)c2)C1 [Example 2, 4-amino-N^1,N^7-bis(2-(2-(2-(3-((S)-6,8-dichloro-2-methyl-1,2,3,4-tetrahydroisoquinolin-4-yl)phenylsulfonamido)ethoxy)ethoxy)ethyl)-4-(3-(2-(2-(2-(3-((S)-6,8-dichloro-2-methyl-1,2,3,4-tetrahydroisoquinolin-4-yl)phenylsulfonamido)ethoxy)ethoxy)ethylamino)-3-oxopropyl)heptanediamide] | < 100 | < 35 | < 12 | < 4 | 4 | 
CN1Cc2c(Cl)cc(Cl)cc2[C@H](c2cccc(S(=O)(=O)NCCOCCOCCNC(=O)CCC(CCC(=O)NCCOCCOCCNS(=O)(=O)c3cccc([C@@H]4CN(C)Cc5c(Cl)cc(Cl)cc54)c3)(CCC(=O)NCCOCCOCCNS(=O)(=O)c3cccc([C@@H]4CN(C)Cc5c(Cl)cc(Cl)cc54)c3)N(C)C)c2)C1 [Example 4, N^1,N^7-bis(2-(2-(2-(3-((S)-6,8-dichloro-2-methyl-1,2,3,4-tetrahydroisoquinolin-4-yl)phenylsulfonamido)ethoxy)ethoxy)ethyl)-4-(3-(2-(2-(2-(3-((S)-6,8-dichloro-2-methyl-1,2,3,4-tetrahydroisoquinolin-4-yl)phenylsulfonamido)ethoxy)ethoxy)ethylamino)-3-oxopropyl)-4-(dimethylamino)heptanediamide] | < 100 | < 35 | < 13 | < 5 | 45 | 2
CN1Cc2c(Cl)cc(Cl)cc2[C@H](c2cccc(S(=O)(=O)NCCOCCOCCNC(=O)CCC(CCC(=O)NCCOCCOCCNS(=O)(=O)c3cccc([C@@H]4CN(C)Cc5c(Cl)cc(Cl)cc54)c3)(CCC(=O)NCCOCCOCCNS(=O)(=O)c3cccc([C@@H]4CN(C)Cc5c(Cl)cc(Cl)cc54)c3)NC(=O)NCC(=O)O)c2)C1 [Example 7, 18-(3-((S)-6,8-dichloro-2-methyl-1,2,3,4-tetrahydroisoquinolin-4-yl)phenylsulfonamido)-6,6-bis(3-(2-(2-(2-(3-((S)-6,8-dichloro-2-methyl-1,2,3,4-tetrahydroisoquinolin-4-yl)phenylsulfonamido)ethoxy)ethoxy)ethylamino)-3-oxopropyl)-4,9-dioxo-13,16-dioxa-3,5,10-triazaoctadecan-1-oic acid] | < 100 | < 35 | < 8 | < 2 | 19 | 

Reference: patent US10385024B2, “Compounds and methods for inhibiting NHE-mediated antiport in the treatment of disorders associated with fluid retention or salt overload and gastrointestinal tract disorders” (Ardelyx, Inc., priority 2012, dated 2019)
